± gives the expanded uncertainty stated by the source.
Experiments:
[1] = Molar enthalpy of transition or fusion; settings: Crystal; DSC
[2] = Crystal; DTA

SMILES	Molar enthalpy of transition or fusion [1]	Normal melting temperature [2]
Brc1cc(Br)c(Br)cc1Br [1,2,4,5-tetrabromobenzene]	5.83 ± 0.598 kcal/mol	181.4 ± 1.1 °C
Brc1ccc(Br)c(Br)c1 [1,2,4-tribromobenzene]	4.28 ± 0.43 kcal/mol	44 ± 1.1 °C
Brc1ccc(Br)cc1 [1,4-dibromobenzene]	4.45 ± 0.454 kcal/mol	84.6 ± 1.1 °C
Brc1c(Br)c(Br)c(Br)c(Br)c1Br [hexabromobenzene]	5.88 ± 0.598 kcal/mol	325.6 ± 1.1 °C

— the NIST ThermoML archive (doi:10.1021/je0342724)
